From patent US5028715A, “Radioprotective agents and their method of manufacture” (priority 1989, dated 1991)
Read-outs that look alike come from different tables or passages of the source.

Experiments:
Type in all cases: in vivo
test mice [1] = test: Acute toxicity in mice (Table I); conditions: vehicle H2O
Protocol: (§1) Radioprotective Agents A, B, C, and D were tested for acute toxicity and radioprotective activity using test mice at various dosage levels against LD100 of γ-radiation. The agents were administered interperitoneally (ip).

[2] = Acute toxicity in mice (Table I); conditions: mouse, in vivo; for survival: read-out: Survivors (%); for LD50: mice, ip
Protocol: as §1

test mice [3] = test: Radioprotective activity in mice against LD100 of γ-radiation (1000 RAD) (Table II); conditions: for toxicity (in words): at the levels used in this test; for protection against LD100 dose of irradiation (in words): dose level near the LD50 (50 mg/kg), all the mice survived
[4] = 75 mg/kg ip, 30 min before 1000 RAD
[5] = 150 mg/kg ip, 30 min before 1000 RAD
[6] = 300 mg/kg ip, 30 min before 1000 RAD
[7] = 300 mg/kg po, 30 min before 1000 RAD
[8] = 600 mg/kg po, 30 min before 1000 RAD
[9] = 1200 mg/kg po, 30 min before 1000 RAD
[10] = 18.75 mg/kg ip, 30 min before 1000 RAD
[11] = 37.5 mg/kg ip, 30 min before 1000 RAD
[12] = 54.3 mg/kg ip, 30 min before 1000 RAD
[13] = 109 mg/kg ip, 30 min before 1000 RAD
[14] = 217 mg/kg ip, 30 min before 1000 RAD
[15] = 435 mg/kg ip, 30 min before 1000 RAD
[16] = 55.1 mg/kg ip, 0 min before 1000 RAD
[17] = 110.3 mg/kg ip, 0 min before 1000 RAD
[18] = 220.6 mg/kg ip, 0 min before 1000 RAD
[19] = 441 mg/kg ip, 0 min before 1000 RAD

SMILES: NCCCN1CCSC1c1ccc([N+](=O)[O-])cc1 (stereo not drawn) [A]
- Deaths (test mice [1]; 75 mg/kg ip): 0/5
- Deaths (test mice [1]; 150 mg/kg ip): 0/5
- Deaths (test mice [1]; 300 mg/kg ip): 2/5
- Deaths (test mice [1]; 600 mg/kg ip): 5/5
- survival ([2]; 75 mg/kg ip, vehicle H2O): 100%
- survival ([2]; 150 mg/kg ip, vehicle H2O): 100%
- survival ([2]; 300 mg/kg ip, vehicle H2O): 60%
- survival ([2]; 600 mg/kg ip, vehicle H2O): 0%
- Drug Related Lethality (test mice [3]; [4]): 0/10
- Survivors (%) (test mice [3]; [4]): 20%
- Drug Related Lethality (test mice [3]; [5]): 0/10
- Survivors (%) (test mice [3]; [5]): 30%
- Drug Related Lethality (test mice [3]; [6]): 5/10
- Survivors (%) (test mice [3]; [6]): 40%
- Drug Related Lethality (test mice [3]; [7]): 0/10
- Survivors (%) (test mice [3]; [7]): 0%
- Drug Related Lethality (test mice [3]; [8]): 0/10
- Survivors (%) (test mice [3]; [8]): 0%
- Drug Related Lethality (test mice [3]; [9]): 7/10
- Survivors (%) (test mice [3]; [9]): 0%
- toxicity (in words) (test mice [3]): toxic

SMILES: COc1ccc(C2SCCN2CCCN)cc1 (stereo not drawn) [B]
- Deaths (test mice [1]; 75 mg/kg ip): 0/5
- Deaths (test mice [1]; 150 mg/kg ip): 4/5
- Deaths (test mice [1]; 300 mg/kg ip): 5/5
- Deaths (test mice [1]; 600 mg/kg ip): 5/5
- survival ([2]; 75 mg/kg ip, vehicle H2O): 100%
- survival ([2]; 150 mg/kg ip, vehicle H2O): 20%
- survival ([2]; 300 mg/kg ip, vehicle H2O): 0%
- survival ([2]; 600 mg/kg ip, vehicle H2O): 0%
- Drug Related Lethality (test mice [3]; [10]): 0/10
- Survivors (%) (test mice [3]; [10]): 0%
- Drug Related Lethality (test mice [3]; [11]): 0/10
- Survivors (%) (test mice [3]; [11]): 0%
- Drug Related Lethality (test mice [3]; [4]): 0/10
- Survivors (%) (test mice [3]; [4]): 20%
- toxicity (in words) (test mice [3]): toxic

SMILES: COc1ccc(C2SCCN2CCCN)cc1OC (stereo not drawn) [C]
- Deaths (test mice [1]; 75 mg/kg ip): 5/5
- Deaths (test mice [1]; 150 mg/kg ip): 5/5
- Deaths (test mice [1]; 300 mg/kg ip): 5/5
- mortality ([2]; 37.5 mg/kg ip, vehicle H2O, read-out: Deaths): 50%
- survival ([2]; 37.5 mg/kg ip, vehicle H2O): 100%
- survival ([2]; 75 mg/kg ip, vehicle H2O): 0%
- survival ([2]; 150 mg/kg ip, vehicle H2O): 0%
- survival ([2]; 300 mg/kg ip, vehicle H2O): 0%
- LD50 [2]: 50 mg/kg
- Drug Related Lethality (test mice [3]; [12]): 0/5
- Survivors (%) (test mice [3]; [12]): 100%
- Drug Related Lethality (test mice [3]; [13]): 5/5
- Survivors (%) (test mice [3]; [13]): 0%
- Drug Related Lethality (test mice [3]; [14]): 5/5
- Survivors (%) (test mice [3]; [14]): 0%
- Drug Related Lethality (test mice [3]; [15]): 5/5
- Survivors (%) (test mice [3]; [15]): 0%
- protection against LD100 dose of irradiation (in words) (test mice [3]): complete protection

SMILES: NCCCN1CCSC1c1ccc2c(c1)OCO2 (stereo not drawn) [D]
- Deaths (test mice [1]; 37.5 mg/kg ip): 0/5
- Deaths (test mice [1]; 75 mg/kg ip): 5/5
- Deaths (test mice [1]; 150 mg/kg ip): 5/5
- Deaths (test mice [1]; 300 mg/kg ip): 5/5
- survival ([2]; 37.5 mg/kg ip, vehicle H2O): 100%
- survival ([2]; 75 mg/kg ip, vehicle H2O): 0%
- survival ([2]; 150 mg/kg ip, vehicle H2O): 0%
- survival ([2]; 300 mg/kg ip, vehicle H2O): 0%
- LD50 [2]: 50 mg/kg
- Drug Related Lethality (test mice [3]; [16]): 0/5
- Survivors (%) (test mice [3]; [16]): 100%
- Drug Related Lethality (test mice [3]; [17]): 5/5
- Survivors (%) (test mice [3]; [17]): 0%
- Drug Related Lethality (test mice [3]; [18]): 5/5
- Survivors (%) (test mice [3]; [18]): 0%
- Drug Related Lethality (test mice [3]; [19]): 5/5
- Survivors (%) (test mice [3]; [19]): 0%
- protection against LD100 dose of irradiation (in words) (test mice [3]): complete protection
